US11453683B1, “KRas G12D inhibitors” (Mirati Therapeutics, Inc., priority 2019, dated 2022)

Tested on: KRas G12D-mediated phosphorylation of ERK
Test: Inhibition of KRas G12D-mediated phosphorylation of ERK in AGS cells
Assay type: cell-based
Conditions: Homo sapiens; AGS cells expressing G12D, 3 hours, phospho-ERK normalized to GAPDH
In short: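 Fixed, methanol-permeabilized; phospho-ERK (Thr202/Tyr204) by in-cell immunofluorescence normalized to GAPDH. Percent of DMSO control, IC50 by 4-parameter fit.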

SMILES	IC50
Fc1c(-c2cccc3cccc(Cl)c23)ncc2c(N3C[C@H]4CC[C@@H](C3)N4)nc(OCC34CCCCN3CCC4)nc12 (stereo partly drawn) [Example 54, 4-((1R,5S)-3,8-diazabicyclo[3.2.1]octan-3-yl)-7-(8-chloronaphthalen-1-yl)-8-fluoro-2-((hexahydroindolizin-8a(1H)-yl)methoxy)pyrido[4,3-d]pyrimidine]	> 16.7 µM
CC(Oc1nc(N2C[C@H]3CC[C@@H](C2)N3)c2cnc(-c3cc(O)cc4ccccc34)c(F)c2n1)C1CCCN1C (stereo partly drawn) [Example 27, 4-(4-((1R,5S)-3,8-diazabicyclo[3.2.1]octan-3-yl)-8-fluoro-2-(1-(1-methylpyrrolidin-2-yl)ethoxy)pyrido[4,3-d]pyrimidin-7-yl)naphthalen-2-ol]	1.28 µM
CN(C)C1CN(c2nc(N3C[C@H]4CC[C@@H](C3)N4)c3cnc(-c4cccc5cccc(Cl)c45)c(F)c3n2)C1 [Example 122, 1-(4-((1R,5S)-3,8-diazabicyclo[3.2.1]octan-3-yl)-7-(8-chloronaphthalen-1-yl)-8-fluoropyrido[4,3-d]pyrimidin-2-yl)-N,N-dimethylazetidin-3-amine]	> 16.7 µM
CN1CCC[C@H]1COc1nc(N2C[C@H]3CC[C@@H](C2)N3)c2cnc(-c3cc(O)cc4cccc(Cl)c34)c(F)c2n1 [Example 63, 4-(4-((1R,5S)-3,8-diazabicyclo[3.2.1]octan-3-yl)-8-fluoro-2-(((S)-1-methylpyrrolidin-2-yl)methoxy)pyrido[4,3-d]pyrimidin-7-yl)-5-chloronaphthalen-2-ol]	0.187 µM
CC1CCc2cccc(-c3ncc4c(N5CC6CCC(C5)N6)nc(OC[C@@]56CCCN5C[C@H](F)C6)nc4c3F)c21 (stereo partly drawn) [Example 429, 4-(3,8-diazabicyclo[3.2.1]octan-3-yl)-8-fluoro-2-(((2R,7aS)-2-fluorotetrahydro-1H-pyrrolizin-7a(5H)-yl)methoxy)-7-(3-methyl-2,3-dihydro-1H-inden-4-yl)pyrido[4,3-d]pyrimidine]	1.7 µM
CN1CC[C@@H](COc2nc(N3C[C@H]4CC[C@@H](C3)N4)c3cnc(-c4cccc5cccc(Cl)c45)c(F)c3n2)C1 [Example 356, 4-((1R,5S)-3,8-diazabicyclo[3.2.1]octan-3-yl)-7-(8-chloronaphthalen-1-yl)-8-fluoro-2-(((R)-1-methylpyrrolidin-3-yl)methoxy)pyrido[4,3-d]pyrimidine]	11.9 µM
CC(C)c1ccc(O)cc1-c1ncc2c(N3CC4CCC(C3)N4)nc(OC[C@@]34CCCN3C[C@H](F)C4)nc2c1F (stereo in doubt) [Example 399, 3-(4-((1R,5S)-3,8-diazabicyclo[3.2.1]octan-3-yl)-8-fluoro-2-((2-fluorotetrahydro-1H-pyrrolizin-7a(5H)-yl)methoxy)pyrido[4,3-d]pyrimidin-7-yl)-4-isopropylphenol]	0.51 µM
CN1CCC[C@H]1COc1nc(N2CC3CCC(CCC#N)(C2)N3)c2cnc(-c3cc(O)cc4ccccc34)c(F)c2n1 (stereo partly drawn) [Example 157, 3-(3-(8-fluoro-7-(3-hydroxynaphthalen-1-yl)-2-(((S)-1-methylpyrrolidin-2-yl)methoxy)pyrido[4,3-d]pyrimidin-4-yl)-3,8-diazabicyclo[3.2.1]octan-1-yl)propanenitrile bis(2,2,2-trifluoroacetate)]	8 µM
C#Cc1cccc2cc(O)cc(-c3ncc4c(N5C[C@H]6CC[C@@H](C5)N6)nc(OCC56CCCN5CCC6)nc4c3F)c12 [Example 185, 4-(4-((1R,5S)-3,8-diazabicyclo[3.2.1]octan-3-yl)-8-fluoro-2-((hexahydro-1H-pyrrolizin-7a-yl)methoxy)pyrido[4,3-d]pyrimidin-7-yl)-5-ethynylnaphthalen-2-ol]	0.0071 µM
C=Cc1cccc2cccc(-c3ncc4c(N5C[C@H]6CC[C@@H](C5)N6)nc(OC[C@@H]5CCCN5C)nc4c3F)c12 [Example 201, 4-((1R,5S)-3,8-diazabicyclo[3.2.1]octan-3-yl)-8-fluoro-2-(((S)-1-methylpyrrolidin-2-yl)methoxy)-7-(8-vinylnaphthalen-1-yl)pyrido[4,3-d]pyrimidine]	13.9 µM
